Measured values: paper PMC12362764, “Novel Cyano‐Artemisinin Dimer ZQJ29 Targets PARP1 to Induce Ferroptosis in Pancreatic Cancer Treatment” (Advanced Science, 2025)

What was measured:
[1] = test system: PANC-1 cells; assay: Cell cycle analysis (PI, flow cytometry), PANC-1; type: cell-based; settings: PANC-1, 24 h
Method: PANC‐1 and KP4 cells were placed in 6 cm dishes and exposed to designated concentrations of ZQJ29 (1 µM) for 24 h before trypsinization. After centrifugation, the cells were secured and preserved in ice‐cold 70% ethanol and stored at 4 °C for 24 h. They were then thoroughly washed with PBS multiple times. Next, the fixed cells were incubated in PBS supplemented with RNase and PI solution for 30 min at 37 °C, protected from light exposure. Cell cycle progression was assessed using a flow cytometer. This experimental procedure was systematically conducted in three separate trials, with each trial done in triplicate. Cell cycle kits were obtained from Beyotime (Shanghai, China).

[2] = Pharmacokinetic study after intragastric administration; type: in vivo, Sprague-Dawley (SD) rats; settings: rat, 50 mg/kg i.g.
Method: Male Sprague‐Dawley (SD) rats (200 ± 20 g) were purchased from Beijing Vital River Laboratory Animal Technology Co., Ltd. (Beijing, China). After a one‐week acclimatization period, the rats were injected intragastrically with ZQJ29 (50 mg kg^−1). Blood samples were collected from the jugular veins after the injection of ZQJ29 (at 5, 10, 20, 40, 60, 120, 240, 360, 720, and 1440 min). The whole blood was centrifuged at 4000 × g for 10 min at 4 °C. Plasma was extracted with MeOH by vortexing for 10 min. After centrifugation for 12 min at 12 000 × g at 4 °C, the supernatant was analyzed using an HPLC‐MS/MS system. The concentration of ZQJ29 was quantitatively measured by the external standard method. Pharmacokinetic parameters were calculated using Drug and Statistic (DAS, version 2.0) software based on the compartmental method.

[3] = test system: PANC-1 and KP4 cells; assay: Mitochondrial membrane potential assay (JC-1); type: cell-based; settings: 24 h
Method: Mitochondrial membrane potential assay kits with JC‐1 (Beyotime, Shanghai, China) were used to measure the alteration of mitochondrial membrane potential (ΔΨm). After being treated with different concentrations of ZQJ29 (0, 1, 2.5, and 5 µM) for 24 h, cells were treated with the positive control reagent CCCP (10 µM) for 30 min at 37 °C. The cells were rinsed once with PBS, and the JC‐1 staining working solution was added for 30 min at 37 °C in the dark. Afterward, the cells were washed twice with 1 × JC‐1 staining buffer. Fluorescent images of the JC‐1‐stained cells were captured with a fluorescence microscope Cytation5 (BioTek, America).

[4] = test system: LX2; assay: CCK-8 cytotoxicity assay, LX2 (normal cell line); type: cell-based; settings: Homo sapiens, LX-2, 72 h
Method: (§1) Cell viability was evaluated using the Cell Counting Kit‐8 (Beyotime, Shanghai, China) assay. Cells were seeded in 96‐well plates at a density of 2×10^3 cells to allow for attachment. After treatment with ZQJ29 (0.001, 0.01, 0.1, 10, and 25 µM) for 24, 48, and 72 h, 10 µL of CCK‐8 solution was added to each well and incubated for 1 h. The optical density values were then measured at 450 nm using a multifunctional enzyme‐linked immunosorbent assay reader (Tecan, Spark, Switzerland).

[5] = biological target: PARP1 (Homo sapiens, UniProt P09874); assay: DARTS; type: binding; parameters: Total cellular proteins from PANC‐1 and KP4 were extracted using M‐PER lysis buffer; endogenous in cells; host or cells: PANC-1 and KP4 pancreatic cancer cells; settings: enzyme-lysate ratio 1:3000, higher ZQJ29 concentrations
Chain of PARP1 (P09874 whole entry): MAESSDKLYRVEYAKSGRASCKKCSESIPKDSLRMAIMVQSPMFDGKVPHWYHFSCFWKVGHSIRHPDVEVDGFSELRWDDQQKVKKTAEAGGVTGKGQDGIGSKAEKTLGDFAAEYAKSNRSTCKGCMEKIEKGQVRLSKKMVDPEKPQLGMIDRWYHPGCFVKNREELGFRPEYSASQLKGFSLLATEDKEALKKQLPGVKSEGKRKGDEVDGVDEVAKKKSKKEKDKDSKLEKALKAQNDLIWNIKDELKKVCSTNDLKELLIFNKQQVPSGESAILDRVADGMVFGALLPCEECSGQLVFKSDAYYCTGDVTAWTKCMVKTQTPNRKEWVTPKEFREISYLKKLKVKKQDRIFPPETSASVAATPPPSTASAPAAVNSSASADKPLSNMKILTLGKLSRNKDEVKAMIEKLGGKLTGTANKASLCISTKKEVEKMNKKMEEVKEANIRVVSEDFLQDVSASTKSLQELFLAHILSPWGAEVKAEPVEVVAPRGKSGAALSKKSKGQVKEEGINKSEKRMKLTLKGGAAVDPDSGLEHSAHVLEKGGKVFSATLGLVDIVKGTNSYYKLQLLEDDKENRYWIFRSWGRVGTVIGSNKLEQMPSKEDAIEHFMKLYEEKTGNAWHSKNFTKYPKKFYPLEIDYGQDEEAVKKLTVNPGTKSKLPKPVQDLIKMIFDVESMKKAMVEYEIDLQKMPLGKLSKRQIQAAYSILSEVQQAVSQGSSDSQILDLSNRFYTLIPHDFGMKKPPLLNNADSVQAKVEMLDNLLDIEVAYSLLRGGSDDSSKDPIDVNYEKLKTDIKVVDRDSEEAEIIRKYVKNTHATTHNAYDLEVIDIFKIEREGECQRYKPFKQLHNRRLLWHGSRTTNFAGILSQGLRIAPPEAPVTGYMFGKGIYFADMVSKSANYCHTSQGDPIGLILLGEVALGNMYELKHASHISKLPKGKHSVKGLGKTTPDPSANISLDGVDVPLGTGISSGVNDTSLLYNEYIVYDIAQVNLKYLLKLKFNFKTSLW
Method: Total cellular proteins from PANC‐1 and KP4 were extracted using M‐PER lysis buffer (Thermo Fisher, USA). Aliquots of 50 µg of protein were taken from the lysate and placed into each 1.5 mL tube. Different concentrations of ZQJ29 were added to some tubes, while control tubes received an equal amount of DMSO. The mixtures were incubated at room temperature for 1 h. After incubation, Pronase was added to the mixture of cellular proteins at a ratio of Pronase: protein = 1: 3000 for digestion at room temperature for 15 min. Following digestion, 5 × loading buffer was added, and the samples were heated at 100 °C for 10 min before being used for western blot analysis.

[6] = test system: PANC-1 and KP4 cells; assay: Colony formation assay; type: cell-based; settings: 0, 1, 2.5, 5 µM, concentration-dependent
Method: The clonogenicity of pancreatic cancer cells was evaluated using a colony formation assay. PANC‐1 and KP4 cells were seeded into 6‐well plates at ≈200 cells per well in the conditional medium. The cells were treated with different concentrations of ZQJ29 (0, 1, 2.5, and 5 µM) for 24 h. After treatment, the drug‐containing medium was removed, and complete medium was added for an additional […] in a 37 °C incubator with 5% CO2. The plates were then washed with PBS and fixed with 4% paraformaldehyde. After staining with 0.5% crystal violet (Yeasen, Shanghai, China), the colonies were counted manually.

[7] = test system: HCT116; assay: CCK-8 cytotoxicity assay, HCT116; type: cell-based; settings: Homo sapiens, HCT-116; HCT116, 72 h
Method: as §1

[8] = test system: A549; assay: CCK-8 cytotoxicity assay, A549; type: cell-based; settings: Homo sapiens, A549, 72 h
Method: as §1

[9] = test system: JHH7; assay: CCK-8 cytotoxicity assay, JHH7; type: cell-based; settings: JHH7, 72 h
Method: as §1

[10] = male, Sprague-Dawley, plasma, po, n = 6

## CC1CCC2C(C)C(OCCN(C#N)CCOC3OC4OC5(C)CCC6C(C)CCC(C3C)C46OO5)OC3OC4(C)CCC1C32OO4 (centres unmarked) [ZQJ29]
[1]
  cell cycle arrest: remarkable G2/M phase arrest
[2]; [10]
  AUC(0-t): 40 ± 16.3 ng·h/mL
  Cmax: 11.8 ± 6.05 ng/mL
[2]; male, Sprague-Dawley, plasma, po, n = 6, read-out: MRT0-t
  MRT last: 2.74 ± 0.46 h
[2]; male, Sprague-Dawley, plasma, po, read-out: average residence time (MRT0-inf)
  MRT inf: 2.74 h
[2]; male, Sprague-Dawley, plasma, po, 50 mg/kg, n = 6
  half-life: 1.58 ± 0.26 h
[2]; n = 6, 50 mg/kg
  t1/2: 1.6 h
[3]
  mitochondrial membrane potential (MMP), JC-1: decrease in MMP
[4]
  IC50: > 10000 nM
[5]
  PARP1 accumulation after pronase digestion: increased
[6]
  colony formation: significantly inhibited
[7]
  IC50: 1020 ± 500 nM
[8]
  IC50: > 10000 nM
[9]
  IC50: 791 ± 305 nM
